Data published in patent publication US4536335A, “Carbapenem antibiotics” (Bristol-Myers Company, priority 1983, dated 1985).
Converted amounts (≈) assume the structure as drawn. Read-outs that look alike come from different tables or passages of the source.

Key:
[1] = tested on: various Pseudomonas species; conditions: prior art description; cited from earlier work
E. cloacae A-9656 = experiment: In vitro MIC, tube dilution; type: cell-based; conditions: Enterobacter cloacae, A9656; tube dilution, Nutrient Broth, overnight incubation at 37° C.
S. pyogenes A-9604 = experiment: In vitro MIC, tube dilution; type: cell-based; conditions: Streptococcus pyogenes, A9604, tube dilution, Nutrient Broth, overnight incubation at 37° C.
[2] = Urinary recovery after intramuscular administration to mice; type: in vivo; conditions: mouse, urine, im, 20 mg/kg, mice, i.m. 20 mg/kg
Description: Compounds were solubilized in 0.1 M phosphate buffer pH 7. Values are from a single test; 4 mice per compound.
(§1) Also shown is the urinary recovery in the mice.
***Recovery based on 0-6 hour collection

P. morganii A15153 = experiment: In vitro MIC, tube dilution; type: cell-based; conditions: Morganella morganii, A15153, tube dilution, Nutrient Broth, overnight incubation at 37° C.; read-out: MIC P. morganii A15153
P. rettgeri A22424 = experiment: In vitro MIC, tube dilution; type: cell-based; conditions: Providencia rettgeri, A22424, tube dilution, Nutrient Broth, overnight incubation at 37° C.
B. fragilis A22696 = experiment: In vitro MIC, tube dilution; type: cell-based; conditions: Bacteroides fragilis, Nutrient Broth, overnight incubation at 37° C.
Description: (§2) N-Formimidoyl thienamycin was included as a comparison compound.

E. cloacae A-9569 = experiment: In vitro MIC, tube dilution; type: cell-based; conditions: Enterobacter cloacae, A9569, Nutrient Broth, overnight incubation at 37° C.
Description: as §2

B. fragilis A22862 = experiment: In vitro MIC, tube dilution; type: cell-based; conditions: Bacteroides fragilis, Nutrient Broth, overnight incubation at 37° C.
Description: as §2

B. fragilis A22053 = experiment: In vitro MIC, tube dilution; type: cell-based; conditions: Bacteroides fragilis, Nutrient Broth, overnight incubation at 37° C.
Description: as §2

B. fragilis A22863 = experiment: In vitro MIC, tube dilution; type: cell-based; conditions: Bacteroides fragilis, Nutrient Broth, overnight incubation at 37° C.
Description: as §2

P. mirabilis A-9900 [3] = experiment: In vitro MIC, tube dilution; type: cell-based; conditions: Proteus mirabilis, A9900, tube dilution, Nutrient Broth, overnight incubation at 37° C.
E. coli A15119 = experiment: In vitro MIC, tube dilution; type: cell-based; conditions: Escherichia coli, A15119, tube dilution, Nutrient Broth, overnight incubation at 37° C.
S. faecalis A20688 = experiment: In vitro MIC, tube dilution; type: cell-based; conditions: Enterococcus faecalis, A20688, tube dilution, Nutrient Broth, overnight incubation at 37° C.
P. aeruginosa A-9843A [4] = experiment: In vitro MIC, tube dilution; type: cell-based; conditions: Pseudomonas aeruginosa, A9843A, Nutrient Broth, overnight incubation at 37° C.
[5] = Blood levels in mice after intramuscular administration; type: in vivo; conditions: mouse, blood, im, mice, i.m. 20 mg/kg
Description: Compounds were solubilized in 0.1 M phosphate buffer pH 7. Values are fro
a single test; 4 mice used per compound.
*t1/2 refers to halflife in minutes
**AUC refers to the area under the blood concentrationtime curve
as §1
Compounds were solubilized in 0.1 M phosphate buffer, pH 7.
Values based on a single test; 4 mice per compound.
*T1/2 refers to halflife in minutes

P. mirabilis A-9900 [6] = experiment: Protective effect in the intramuscular treatment of infected mice (PD50); type: in vivo; conditions: Proteus mirabilis, A9900, im, read-out: PD50/Treatment, P. mirabilis A-9900
Description: (§3) Treatment Schedule: Mice were treated i.m. with drugs 0 and 2 hours post-infection; 5 mice per dose were used for each test

S. marcescens A20019 = experiment: In vitro MIC, tube dilution; type: cell-based; conditions: Serratia marcescens, A20019; tube dilution, Nutrient Broth, overnight incubation at 37° C.
P. aeruginosa A-9843a [7] = experiment: Protective effect in the intramuscular treatment of infected mice (PD50); type: in vivo; conditions: Pseudomonas aeruginosa, A9843A, im; mice, challenge 3 × 10^6 organisms, treated i.m. 0 and 2 hours post-infection; read-out: PD50/Treatment, P. aeruginosa A-9843a
Description: The PD50 (dose in mg/kg required to give protection to 50% of the infected mice) is indicated.
as §3
*For compound of Ex. 2, mice were infected i.p. with 2 × 10^9
compounds of Ex. 4 and 5, mice were infected i.p. with ~9 ×
were treated i.m. with drugs 0 and 2 h postinfection.

P. vulgaris A21559 = experiment: In vitro MIC, tube dilution; type: cell-based; conditions: Proteus vulgaris, A21559, tube dilution, Nutrient Broth, overnight incubation at 37° C.
E. coli A20341-1 = experiment: In vitro MIC, tube dilution; type: cell-based; conditions: Escherichia coli, A203411, tube dilution, Nutrient Broth, overnight incubation at 37° C.
[8] = tested on: S. aureus A-9606 (Pen-res.); experiment: In vitro MIC, tube dilution; type: cell-based; conditions: Staphylococcus aureus, Nutrient Broth, overnight incubation at 37° C., read-out: MIC S. aureus A-9606 (Pen-res.)
S. aureus A-9537 = experiment: In vitro MIC, tube dilution; type: cell-based; conditions: Staphylococcus aureus, overnight incubation at 37° C.
[9] = Toxicity after intracranial administration to mice; conditions: mouse, in vivo
Description: | *Average of 25/mice/compound

P. aeruginosa A21213 = experiment: In vitro MIC, tube dilution; type: cell-based; conditions: Pseudomonas aeruginosa, A21213, tube dilution, Nutrient Broth, overnight incubation at 37° C.
S. pneumoniae A-9585 = experiment: In vitro MIC, tube dilution; type: cell-based; conditions: Streptococcus pneumoniae, A9585, Nutrient Broth, overnight incubation at 37° C.
K. pneumoniae A-9664 = experiment: In vitro MIC, tube dilution; type: cell-based; conditions: Klebsiella pneumoniae, A9664, tube dilution, Nutrient Broth, overnight incubation at 37° C.
K. pneumoniae A20468 = experiment: In vitro MIC, tube dilution; type: cell-based; conditions: Klebsiella pneumoniae, A20468, tube dilution, Nutrient Broth, overnight incubation at 37° C.

In the case of `C[C@@H](O)[C@H]1C(=O)N2C(C(=O)O)=C(SCCN)C[C@H]12` [Thienamycin, thienamycin], the “activity against various Pseudomonas species” value [1] is given as “notable activity”.
In the case of `C[C@@H](O)[C@H]1C(=O)N2C(C(=O)[O-])=C(SCC[N+]3(C)CCCC3)C[C@H]12` [Example 1, 3-[2-(N-methylpyrrolidinium)ethylthio]-6α-[1-(R)-hydroxyethyl]-7-oxo-1-azabicyclo [3.2.0]hept-2-ene-2-carboxylate], the MIC (E. cloacae A-9656) is reported as 0.13 µg/mL (≈ 0.382 µM), the MIC (S. pyogenes A-9604) is reported as 0.002 µg/mL (≈ 0.00587 µM) and the dose excreted at 3 h ([2]; 0-3 hours after administration, read-out: Percentage of Dose Recovered in urine, 0-3 hours) is reported as 18.8%. For the same molecule, the dose excreted at 24 h ([2]; 0-24 hours after administration, read-out: Percentage of Dose Recovered in urine, 0-24 hours) was 19.5 ± 3.2%, the dose excreted at 6 h ([2]; 3-6 hours after administration, read-out: Percentage of Dose Recovered in urine, 3-6 hours) was 0.6% and the dose excreted at 24 h ([2]; 6-24 hours after administration, read-out: Percentage of Dose Recovered in urine, 6-24 hours) was 0.1%. It also gave an MIC (P. morganii A15153) of 0.13 µg/mL (≈ 0.382 µM), an MIC (P. rettgeri A22424) of 0.25 µg/mL (≈ 0.734 µM) and an MIC (B. fragilis A22696) of 0.5 µg/mL (≈ 1.47 µM). The MIC (E. cloacae A-9569) was 0.25 µg/mL (≈ 0.734 µM), the MIC (B. fragilis A22862) was 0.13 µg/mL (≈ 0.382 µM) and the MIC (B. fragilis A22053) was 0.25 µg/mL (≈ 0.734 µM). It also gave an MIC (B. fragilis A22863) of 0.13 µg/mL (≈ 0.382 µM), an MIC (P. mirabilis A-9900 [3]) of 0.13 µg/mL (≈ 0.382 µM) and an MIC (E. coli A15119) of 0.03 µg/mL (≈ 0.0881 µM). It also gave an MIC (S. faecalis A20688) of 1 µg/mL (≈ 2.94 µM), an MIC (P. aeruginosa A-9843A [4]) of 4 µg/mL (≈ 11.7 µM) and an AUC ([5]; 20 mg/kg, Example 1 table, read-out: AUC (area under the blood concentration-time curve)) of 5400 ng·h/mL. For the same molecule, the half-life ([5]; 20 mg/kg, Example 1 table, read-out: t1/2 (half-life in blood)) was 11 min, the concentration at 10 min ([5]; 10 min, read-out: Blood Level 10 minutes after administration) was 13700 ng/mL and the concentration at 20 min ([5]; 20 min, read-out: Blood Level 20 minutes after administration) was 10200 ng/mL. The concentration at 0.5 h ([5]; 30 min, read-out: Blood Level 30 minutes after administration) was 5700 ng/mL, the concentration at 0.75 h ([5]; 45 min, read-out: Blood Level 45 minutes after administration) was 2100 ng/mL and the concentration at 1 h ([5]; 60 min, read-out: Blood Level 60 minutes after administration) was less than 600 ng/mL. It also gave a concentration at […] ([5]; 90 min, read-out: Blood Level 90 minutes after administration) of less than 600 ng/mL, an ED50 (P. mirabilis A-9900 [6]) greater than 10 mg/kg and an MIC (S. marcescens A20019) of 0.06 µg/mL (≈ 0.176 µM). It also gave an ED50 (P. aeruginosa A-9843a [7]) of 3 mg/kg, an MIC (P. vulgaris A21559) of 0.03 µg/mL (≈ 0.0881 µM) and an MIC (E. coli A20341-1) of 0.03 µg/mL (≈ 0.0881 µM). It also gave an MIC [8] of 0.016 µg/mL (≈ 0.047 µM), an MIC (S. aureus A-9537; A9537, + 50% serum, tube dilution, read-out: MIC S. aureus + 50% serum A-9537) of 0.016 µg/mL and an MIC (S. aureus A-9537; A9537, tube dilution, Nutrient Broth, read-out: MIC S. aureus A-9537) of 0.008 µg/mL (≈ 0.0235 µM). The NOAEL [9] was greater than 10 mg/kg, the LD50 ([9]; intracranial administration to mice, average of 25 mice/compound) was greater than 10 mg/kg and the MIC (P. aeruginosa A21213) was 0.25 µg/mL (≈ 0.734 µM). The MIC (S. pneumoniae A-9585) was 0.002 µg/mL (≈ 0.00587 µM), the MIC (K. pneumoniae A-9664) was 0.06 µg/mL (≈ 0.176 µM) and the MIC (K. pneumoniae A20468) was 0.13 µg/mL (≈ 0.382 µM).
